Patent publication US9522163B2, “Methods of treating hepatitis” (priority 2002, dated 2016)

Experiments:
[1] = tested on: mouse primary hepatocytes; assay: TNF-α/ActD-induced cell death, crystal violet viability; format: cell-based
Procedure: Mouse primary hepatocytes were harvested from C57BL/6J, mkk3^−/−, inos^−/− (in-house breeding colony), or hmox-1^−/− mice as described in Kim et al. (J. Biol. Chem. 272: 1402-1411 (1997)). Hepatocytes were used on days 1-3 following harvest.
Cells were treated with TNF-α (10 ng/ml) and actinomycin-D (Act-D; 200 ng/ml, Sigma Chemical Co. St. Louis, Mo.) to induce cell death.
Whether exogenous CO is protective against hepatocyte cell death in vitro was investigated. To generate the data presented in FIG. 2, mouse hepatocytes were pre-incubated with CO (250 ppm) for 1 hr (standard pre-treatment time for all experiments) prior to addition of TNF-α/Act-D (10 ng/200 ng/ml respectively). Cells were maintained in CO for the duration of the experiment. Twelve hours afterward, cell viability was measured as described in Kim et al. (J. Biol. Chem. 272: 1402-1411 (1997)). Adenoviral experiments involved incubating hepatocytes overnight with 10 pfu/cell of the adenovirus prior to addition of TNF-α/ActD, and then assaying for viability using crystal violet. The roles of signaling molecules guanylyl cyclase and p38 MAPK were also investigated in this model. To evaluate the role of cGMP and confirm the role of NF-κB, hepatocytes were treated separately with the soluble guanylate cyclase (sGC) inhibitor 1H-[1,2,4]Oxadiazolo[4,3-a]quinoxalin-1-one (ODQ; Calbiochem; 2-10 μM) or the NF-κB inhibitor BAY 11-7082, (10 μM). Cells were treated with the inhibitors for 1 hour prior to the 1 hour pretreatment with CO. TNF-α/ActD was then added and the cells tested for viability 12 hours later. NF-κB activation was critical to the protection elicited by CO while cGMP was not involved.
To generate the data presented in FIG. 9, mouse hepatocytes were isolated from inos^−/− or from wild type C57BL/6J mice, which were then pre-treated for 1 hr with L-NIO (1 mM) to inhibit iNOS prior to CO administration. Those groups exposed to CO received a one-hour pretreatment prior to addition of TNF-α/ActD and were then returned to CO exposure.
To generate the data presented in FIG. 19, mouse hepatocytes were isolated from HO-1 null mice (hmox-1^−/−) and wild type (C57BL/6J) littermates, pretreated for 1 hour with CO (250 ppm), and treated with TNF-α/ActD. Viability was assayed as described above.
To generate the data presented in FIG. 20, mouse hepatocytes were isolated from HO-1 null mice (hmox-1^−/−) and wild type (C57BL/6J) littermates, pretreated with the NO donor SNAP (500 μM), and then treated with TNF-α/ActD 1 hour later.

[2] = tested on: mouse primary hepatocytes; assay: as above; format: cell-based; conditions: BAY 11-7082 (10 μM) to inhibit NF-κB activation
iNOS = iNOS promoter luciferase reporter assay in hepatocytes; format: cell-based; conditions: BAY 11-7082 10 μM 1 hr prior to CO
Procedure: In some experiments, gene transfer of an IκBα superrepressor (Hellerbrand et al., Hepatology 27:1285-1295 (1998)) or β-galactosidase using adenoviral vectors (10 pfu/cell) was performed 12 hours prior to TNF-α/ActD treatment. NF-κB activation was evaluated using a luciferase reporter assay as described in Chow et al. (J. Biol. Chem. 274: 10689-10692 (1999)). Briefly, hepatocytes were co-transfected with NF-κB reporter constructs (pGL3-kappaβ luciferase, 100 ng/well; and pIEP-Lac-z 0.5 μg/well) using Lipofectin™ (Invitrogen, Carlsbad, Calif.) as instructed by the manufacturer. Evaluation of iNOS expression was performed using a luciferase reporter assay as described in Lowenstein et al. (Proc. Natl. Acad. Sci. U.S.A 90: 9730-9734 (1993)). Briefly, hepatocytes were co-transfected with iNOS promoter reporter constructs (pXP2; 1 μg/well) and pIEP-LacZ (0.5 μg/well) as described above.
Hepatocytes were transfected with plasmids as described above and treated with various stimuli 24 hours after transfection. Luciferase activity (reported as arbitrary units; A.U.) was assayed 6 hours after initiation of treatment, using a luciferase assay kit (Promega, Madison, Wis.) and a Berthold Luminometer. Results were corrected for transfection efficiency and protein concentration. […]

[3] = tested on: TNF-α/D-gal-induced liver injury
Procedure: Male C57BL/6J ([…], Bar Harbor, Me.), 8-12-wk-old inos^−/− mice and wild type littermates (bred/maintained at the University of Pittsburgh) were used for in vivo experiments.
10 mg/kg subcutaneously (s.c.), Alexis Biochem., San Diego, Calif.) or cobalt protoporphyrin (CoPP, 5 mg/kg, intraperitoneally (i.p.), Frontier Scientific, Logan, Utah). […] Where indicated, acetaminophen (Sigma Chem. Co.; St Louis, Mo.) was administered (500 mg/kg, i.p.).
A CO analyzer (Interscan, Chatsworth, Calif.) was used to measure CO levels continuously in the chamber. CO concentrations were maintained at 250 ppm at all times. Mice were placed in the exposure chamber as required.
Whether HO-1 is protective against acute hepatic failure was investigated. Cobalt protoporphyrin (5 mg/kg, i.p.) was administered to male C57BL/6J mice. Twenty-four hours later, TNF-α/D-gal (0.3 μg/8 mg/mouse, i.p., respectively) was administered to the mice. Serum alanine aminotransferase (ALT) levels in the mice were measured 8 hours after administration of TNF-α/D-gal.
After receiving TNF-α/D-gal, mice were returned to the CO exposure chamber and their serum was analyzed for ALT levels 6-8 hr later.
To generate the data presented in FIGS. 11A-11H, liver samples from mice treated with TNF-α/D-gal in the presence and absence of CO (250 ppm) for 8 hr were sectioned and stained for hematoxylin & eosin (H&E), activated caspase 3 (as indicated by an increase in red intensity), and for TUNEL positive cells (as demarcated by the increased green cellular staining; a marker of cell death). Nuclei stained blue.
L-NIL was administered 2 hr prior to CO. CO-treated animals were then pre-treated (250 ppm) for 1 hr prior to TNF-α/D-gal.
VP was selectively designed to deliver NO directly to the liver. One hour after the initial VP dose, the animals were exposed to CO for 1 hr prior to administration of TNF-α/D-gal (see above). Serum ALT levels were determined 6-8 hr later.
These mice and inos^−/− mice were then administered CoPP. L-NIL was maintained in the water throughout the experiment. Control and inos^−/− mice received normal drinking water. Twenty-four hr after administration of CoPP, TNF-α/D-gal was administered and serum ALT determined 6-8 hr later.

HO-1 = assay: Liver HO-1 expression (immunoblot); format: in vivo, mice; conditions: L-NIL 5 mg/kg i.p., room air
Procedure: Western blot analysis was performed on primary hepatocytes in culture or from liver homogenates with antibodies to iNOS (Transduction Laboratories, Lexington, Ky.; 1:1000), HO-1 (Calbiochem; 1:2000), or β-actin (Sigma Chemical; 1:5000). Thirty μg protein in cell culture experiments or 100 μg protein from liver homogenates was loaded per well for SDS-PAGE.
To assess the role of iNOS on TNF-α/D-gal-induced HO-1 expression in the liver (data presented in FIG. 16), mice were administered L-NIL (5 mg/kg, i.p.) 2 hr prior to pre-treatment with CO (250 ppm) and every 2 hr thereafter. Control mice received L-NIL and remained in room air.

[4] = SNAP 500 μM, 1 hour before TNF-α/ActD

`CC(=O)N[C@H](C(=O)O)C(C)(C)SN=O` [SNAP, s-nitroso-N-acetyl-penicillamine, reference compound] was tested, and the “TNF-α/ActD-induced cell death, hmox-1−/− hepatocytes” value [1, 4] was “did not provide significant protection” and the “TNF-α/ActD-induced cell death, wild type hepatocytes” value [1, 4] was “significantly protected against cell death”.
For `Cc1ccc(S(=O)(=O)/C=C/C#N)cc1` [BAY 11-7082, reference compound], the “Effect on the protective effects of CO” value [2] was “abrogated” and the “iNOS luciferase reporter activity with NF-κB inhibitor” value (iNOS) was “decreased reporter activity”.
`C=Cc1c2[n-]c(c1C)/C=c1\[n-]/c(c(C)c1C=C)=C\c1[n-]c(c(CCC(=O)O)c1C)/C=c1\[n-]c(c(C)c1CCC(=O)O)=C2.[Sn+4]` [SnPP, tin protoporphyrin] was tested, and the “Effect on the protective effects of CO” value ([3]; SnPP 50 μmol/kg s.c. 5 hr prior to CO, TNF-α/D-gal) was “significantly diminished”, the “Effect on protection by the NO donor V-PYRRO/NO” value ([3]; TNF-α/D-gal with SnPP) was “abrogated” and the “Effect of administration in the absence of TNF-α/D-gal” value ([3]; data not shown) was “no deleterious or protective effects”.
With `O=c1onc2cnc3ccccc3n12` [ODQ, 1H-[1,2,4]Oxadiazolo[4,3-a]quinoxalin-1-one, reference compound] the “Effect on protection provided by CO” value ([1]; ODQ 2-10 μM, 1 hour prior to CO pretreatment) was “did not reverse the protection”.
In the case of `CC(=N)NCCCC[C@H](N)C(=O)O.Cl.Cl` [L-NIL, L-N6-(1-iminoethyl)-lysine-dihydrochloride, reference compound], the “Liver HO-1 expression, L-NIL alone” value (HO-1) is reported as “minimal effect” and the “Severity of liver injury, L-NIL alone” value ([3]; L-NIL 4.5 mM in drinking water, TNF-α/D-gal) is reported as “did not change the severity of injury”.
For `C=CC1=C(C)c2cc3[n-]c(cc4nc(cc5[n-]c(cc1n2)c(C)c5CCC(=O)[O-])C(CCC(=O)[O-])=C4C)c(C)c3C=C.[Co+2].[H+].[H+]` [CoPP, cobalt protoporphyrin], the “Liver injury as measured by serum ALT” value ([3]; 5 mg/kg i.p. 24 h before TNF-α/D-gal, ALT 8 hours after, C57BL/6J mice) was “prevented liver injury”, the Liver injury ([3]; CoPP with and without L-NIL (4.5 mM drinking water), TNF-α/D-gal 24 hours after CoPP) was “protected from liver injury” and the “Reduction in serum ALT” value ([3]; inos−/− mice, CoPP 24 hr before TNF-α/D-gal, 6-8 hr later) was > 50%.
